{"source": "PubChem BioAssay (NCI)", "note": "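Compound exposure: 48 hours, 5 concentrations, 96-well plates. Here, GI50 denotes the concentration required for 50% inhibition of growth. TGI is the concentration that stops growth completely.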"}
{"test_system": "SR leukemia", "experiment": "DTP human tumour cell line panel, 48 h", "units": {"GI50": "µM", "TGI": "µM"}}
{"compound": "CCN(Cc1c(F)cccc1OC)c1ccc(CO)c(Cl)c1", "GI50": 18.3, "TGI": 55.5}
{"compound": "CCOC(=O)c1c(C)c2c(n1Cc1ccccc1)CSCC2=O", "GI50": 7.06, "TGI": "> 100"}
{"compound": "CCCCCCCCCCCC[N+]12CC[N+](CCN)(CC1)CC2", "TGI": 81.7}
{"compound": "C[C@H](CCOc1cccc(CC(=O)O)c1)N(Cc1cccc(C(F)(F)F)c1Cl)CC(c1ccccc1)c1ccccc1", "GI50": 5.51, "TGI": 51.6}
{"compound": "O=C1C=C(c2c(O)ccc3ccccc23)c2cc(O)ccc2C1=O", "TGI": 42.9}
{"compound": "CCN(CCNS(C)(=O)=O)c1ccc(N)c(C)c1", "GI50": 5.14, "TGI": 23.8}
{"compound": "CC(=O)N/C(=C\\c1ccccc1/C=C(\\NC(C)=O)c1nc2cc(C)c(C)cc2[nH]1)c1nc2cc(C)c(C)cc2[nH]1", "TGI": "> 100"}
{"compound": "NCCCn1c2c(c3ccc([N+](=O)[O-])cc3c1=O)C(=O)c1cc(I)ccc1-2", "GI50": "< 0.01", "TGI": 0.929}
{"compound": "CN(Cc1cnc2nc(N)nc(N)c2n1)c1ccc(C(=O)N[C@@H](CCS(=O)(=O)O)C(=O)O)cc1", "TGI": "> 100"}
{"test_system": "SK-MEL-2 melanoma", "experiment": "DTP human tumour cell line panel, 48 h", "units": {"GI50": "µM", "TGI": "µM"}}
{"compound": "Nc1c(C(=O)Nc2ccccn2)sc2nc3c(cc12)C(=O)CCC3", "GI50": 0.443, "TGI": "> 100"}
{"compound": "Cc1cccc(NC2=C(Cl)C(=O)c3nc(C)ccc3C2=O)c1", "GI50": 1.93, "TGI": 4.19}
{"compound": "O=Cc1cc2c(cc1-c1cc3c(cc1C=O)OCO3)OCO2", "TGI": "> 100"}
{"compound": "C/C(=N\\NC(N)=O)c1sc(-c2nc(C)c(/C(C)=N/NC(N)=O)s2)nc1C", "TGI": "> 100"}
{"compound": "COc1cc2c(cc1OCCCN1CCN(CCCOc3cc4c(cc3OC)C(=O)N3CC(F)(F)C[C@H]3C=N4)CC1)N=C[C@@H]1CC(F)(F)CN1C2=O", "GI50": 10.3, "TGI": 23.1}
{"compound": "C[N+](C)(C)CC(=O)N/N=C(/Cc1cc(=O)oc2cc(O)ccc12)C(=O)Nc1ccc(Cl)cc1", "TGI": "> 100"}
{"compound": "COc1cccc2c1O/C(=C\\c1ccc([N+](=O)[O-])s1)C2=O", "GI50": 1.76, "TGI": 3.92}
{"compound": "FC(F)(F)c1ccc2nc(NCc3ccccc3)c(-c3ccccc3)nc2c1", "TGI": "> 100"}
{"compound": "COc1cc(C[P+](c2ccccc2)(c2ccccc2)c2ccccc2)cc(OC)c1OC", "TGI": "> 100"}
{"compound": "C=C(C)[C@@H]1CC[C@]2(CN)CC[C@]3(C)[C@H](CC[C@@H]4[C@@]5(C)CCCNC(C)(C)[C@@H]5CC[C@]43C)[C@@H]12", "GI50": 2.11, "TGI": 3.88}
{"compound": "CCCN(CCC)c1c([N+](=O)[O-])cc(C(=O)N(CC)CC)cc1[N+](=O)[O-]", "TGI": 43.5}
{"compound": "C=C(CN(C)Cc1ccccc1)c1ccc(NC(=O)c2ccc(C(=C)CN(C)Cc3ccccc3)cc2)cc1", "GI50": 60.9, "TGI": "> 100"}
{"compound": "COC(=N)c1csc(C2OC(CO)C(O)C2O)n1", "note": "(stereo not given)", "TGI": "> 100"}
{"compound": "CN1Nc2ccccc2CC1=O", "TGI": "> 100"}
{"compound": "CO[C@@H]1CC[C@]2(C)OC[C@H](C)[C@@H]3C[C@@H](C)[C@@H](OC(C)=O)[C@@H]4[C@H]3[C@@H]2O[C@H]4C[C@@]1(C)O", "GI50": "> 100", "TGI": "> 100"}
{"compound": "CSC[C@H](NC(=O)COc1cccc2cnccc12)C(=O)NC(Cc1ccccc1)C(O)C(=O)N1CSC[C@H]1C(=O)NC(C)(C)C", "note": "(stereo not given in full)", "TGI": "> 100"}
{"compound": "Cc1nc2c(N)ncnc2o1", "TGI": "> 100"}
{"compound": "CCN(Cc1c(F)cccc1OC)c1ccc(CO)c(Cl)c1", "GI50": 2.39, "TGI": 21.7}
{"compound": "CCOC(=O)c1c(C)c2c(n1Cc1ccccc1)CSCC2=O", "GI50": 18.4, "TGI": 45.7}
{"compound": "CCCCCCCCCCCC[N+]12CC[N+](CCN)(CC1)CC2", "TGI": "> 100"}
{"compound": "C[C@H](CCOc1cccc(CC(=O)O)c1)N(Cc1cccc(C(F)(F)F)c1Cl)CC(c1ccccc1)c1ccccc1", "GI50": 5.84, "TGI": 28.2}
{"compound": "O=[N+]([O-])c1cccnc1N=Nc1c(O)[nH]c2ccccc12", "TGI": 53.4}
{"compound": "O=C1C=C(Nc2ccc(Cl)cc2C(=O)c2ccccc2)c2ccccc2C1=O", "TGI": "> 100"}
{"compound": "O=C1C=C(c2c(O)ccc3ccccc23)c2cc(O)ccc2C1=O", "TGI": 36.8}
{"compound": "CCN(CCNS(C)(=O)=O)c1ccc(N)c(C)c1", "GI50": 14.3, "TGI": 29.3}
{"compound": "O=C(c1ccc([N+](=O)[O-])cc1[N+](=O)[O-])N(/N=C/C=C/c1ccccc1)c1nnc(-c2ccccc2)c(-c2ccccc2)n1", "TGI": 97.5}
{"compound": "COc1ccc(NC(=O)CSc2nnc(-c3ccc(NC(C)=O)cc3)o2)cc1", "TGI": 38}
{"compound": "CC(=O)N/C(=C\\c1ccccc1/C=C(\\NC(C)=O)c1nc2cc(C)c(C)cc2[nH]1)c1nc2cc(C)c(C)cc2[nH]1", "TGI": 53.9}
{"compound": "NNc1ncnc2nc[nH]c12", "GI50": 9.27, "TGI": 97.4}
